According to patent publication US20260193293A1, “PEPTIDES CAPABLE OF INHIBITING PROTEIN-PROTEIN INTERACTIONS AT GABAB1A SUBUNIT AND USES THEREOF” (UNIVERSITY OF COPENHAGEN, priority 2022, published 2026):
Read-outs that look alike come from different tables or passages of the source. Non-standard residues stand in square brackets, D forms with d. Residues, ends and D or L forms follow the SMILES beside them. Phe(4-tBu) = CC(C)(C)c1ccc(C[C@H](N)C(=O)O)cc1; Phe(4-NH2) = Nc1ccc(C[C@H](N)C(=O)O)cc1; Phe(4-F) = N[C@@H](Cc1ccc(F)cc1)C(=O)O; 2Nal = N[C@@H](Cc1ccc2ccccc2c1)C(=O)O

How the values were obtained:
[1] = target: Sushi domains (SD1/2) protein; assay: Fluorescence polarization (FP) competition assay with AJAP-1probe, calculated Ki; assay type: binding
Outline: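 Ki values were derived from IC50s (sigmoidal fits, ≥ triplicate), with probe Kd obtained by saturation titration of SD1/2. Peptides displaced a 25 nM TAMRA-labelled probe; polarization read at 530/580 nm in 1% BSA-containing PBS, pH 7.4, room temperature.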

[2] = In vitro plasma stability; details: human; for half-life: plasma; for remaining at 48 h, 100 µM: human plasma
Description: For time-course assay, 360 μL human plasma was pre-warmed up at 37° C. for 15 min and then spiked with 40 μL of tested peptides (1 mM in 1×PBS). […] Subsequently, 100 μL acetonitrile was added into and then samples were incubated overnight at −20° C. After that, all samples were centrifuged at 13,400 rpm for 10 min and the supernatant was filtered and then analyzed by LC-MS and UPLC (Waters). The area under the curve (AUC) was determined and normalized to the value of the first time point. The half-life (T1/2) was obtained by fitting the data to the one-phase decay equation in GraphPad Prism 9 and expressed as the mean of three individual experiments. For end-point assay, 108 μL human plasma was pre-warmed up at 37° C. for 15 min and then spiked with 12 μL of tested peptides (1 mM in 1×PBS).

[3] = CPP tagged peptides overview, SD1/2 binding affinity, mean ± SEM, n ≥ 3, read-out: Ki
[4] = Table 1, affinity maturation, mean ± SEM, n ≥ 3, read-out: Ki
[5] = Table 16, ncAAs incorporated peptides, read-out: Ki (nM) mean ± SEM
[6] = Table 14, CPPs tagged peptides, read-out: Ki (nM) mean ± SEM

Q: With `CC[C@H](C)[C@H](NC(=O)[C@H](C)NC(=O)[C@H](Cc1c[nH]c2ccccc12)NC(=O)[C@@H]1CCCN1C(C)=O)C(=O)N[C@H](C(=O)N[C@@H](Cc1c[nH]c2ccccc12)C(=O)NCC(=O)N1CCC[C@H]1C(=O)N[C@H](C(=O)N[C@H](C(=O)N[C@@H](CO)C(=O)N[C@@H](CCCNC(=N)N)C(=O)N[C@@H](CCC(=O)O)C(=O)N[C@@H](CC(=O)O)C(N)=O)C(C)C)[C@@H](C)O)C(C)C` [PIANPWT, Ac-PWAIVWGPTVSRED-NH2] (Ac-PWAIVWGPTVSRED-NH2) as the compound, how does the Ki ([1]; purified peptides, read-out: Ki) read?
A: Its Ki is 476 ± 19 nM.

Q: What about the half-life [2] of the same compound?
A: The half-life was 16 h.

Q: With `CC[C@H](C)[C@H](NC(=O)[C@H](Cc1c[nH]c2ccccc12)NC(=O)[C@H](CC(=O)O)NC(=O)[C@H](CC(=O)O)NC(=O)[C@H](CC(=O)O)NC(=O)[C@H](CCC(=O)O)NC(C)=O)C(=O)N[C@@H](CC(=O)O)C(=O)N[C@@H](Cc1c[nH]c2ccccc12)C(=O)NCC(=O)N1CCC[C@H]1C(=O)N[C@H](C(=O)N[C@@H](CO)C(=O)N[C@@H](CC(=O)O)C(=O)N[C@@H](CC(=O)O)C(=O)N[C@@H](CC(=O)O)C(N)=O)[C@@H](C)O` [Peptide 17] (Ac-EDDDWIDWGPTSDDD-NH2) as the compound, how does the Ki [1, 3] read?
A: The Ki was 4 ± 0.3 nM.

Q: And the Ki [1, 4]?
A: Its Ki is 4 ± 0.3 nM.

Q: What about the Ki ([1]; Table 13, peptides for affinity maturation, read-out: Ki (nM) mean ± SEM) of the same compound?
A: The Ki was 4 ± 0.3 nM.

Q: And the half-life [2]?
A: The half-life was > 48 h.

Q: For `CC[C@H](C)[C@H](NC(=O)[C@H](Cc1ccc2ccccc2c1)NC(=O)[C@H](CC(=O)O)NC(=O)[C@H](CC(=O)O)NC(=O)[C@H](CC(=O)O)NC(=O)[C@H](CCC(=O)O)NC(C)=O)C(=O)N[C@@H](CC(=O)O)C(=O)N[C@@H](Cc1c[nH]c2ccccc12)C(=O)NCC(=O)N1CCC[C@H]1C(=O)N[C@H](C(=O)N[C@@H](CO)C(=O)N[C@@H](CC(=O)O)C(=O)N[C@@H](CC(=O)O)C(=O)N[C@@H](CC(=O)O)C(N)=O)[C@@H](C)O` [Peptide 21] (Ac-EDDD[2Nal]IDWGPTSDDD-NH2), which Ki [1, 3] is on record?
A: The Ki was 5.3 ± 0.2 nM.

Q: What about the Ki [1, 4] of the same compound?
A: Its Ki is 5.3 ± 0.2 nM.

Q: What about the Ki [1, 5] of the same compound?
A: The Ki was 5.3 ± 0.2 nM.

Q: What about the half-life [2] of the same compound?
A: The half-life was > 48 h.

Q: Which results are given for `CC[C@H](C)[C@H](NC(=O)[C@H](Cc1c[nH]c2ccccc12)NC(=O)[C@H](CC(=O)O)NC(=O)[C@H](CC(=O)O)NC(=O)[C@H](CC(=O)O)NC(=O)[C@H](CCC(=O)O)NC(=O)[C@H](CCCNC(=N)N)NC(=O)[C@H](CCCNC(=N)N)NC(=O)[C@H](CCCNC(=N)N)NC(C)=O)C(=O)N[C@@H](CC(=O)O)C(=O)N[C@@H](Cc1c[nH]c2ccccc12)C(=O)N[C@@H](Cc1ccc(O)cc1)C(=O)N[C@@H](CC(=O)O)C(=O)N[C@@H](CO)C(=O)N[C@@H](CC(=O)O)C(=O)N[C@@H](CC(=O)O)C(=O)N[C@@H](CC(=O)O)C(N)=O` [Peptide R3-16] (Ac-RRREDDDWIDWYDSDDD-NH2)?
A: Ki [1, 6]: 6.4 ± 0.1 nM; remaining at 48 h, 100 µM [2]: ~80%

Q: What does the source list for `CC[C@H](C)[C@H](NC(=O)[C@H](Cc1c[nH]c2ccccc12)NC(=O)[C@H](CC(=O)O)NC(=O)[C@H](CC(=O)O)NC(=O)[C@H](CC(=O)O)NC(=O)[C@H](CCC(=O)O)NC(=O)[C@H](CCCNC(=N)N)NC(=O)[C@H](CCCNC(=N)N)NC(=O)[C@H](CCCNC(=N)N)NC(C)=O)C(=O)N[C@@H](CC(=O)O)C(=O)N[C@@H](Cc1c[nH]c2ccccc12)C(=O)NCC(=O)N1CCC[C@H]1C(=O)N[C@H](C(=O)N[C@@H](CO)C(=O)N[C@@H](CC(=O)O)C(=O)N[C@@H](CC(=O)O)C(=O)N[C@@H](CC(=O)O)C(N)=O)[C@@H](C)O` [Peptide R3-17] (Ac-RRREDDDWIDWGPTSDDD-NH2)?
A: Ki [1, 6]: 9 ± 0.2 nM; remaining at 48 h, 100 µM [2]: ~80%

Q: What does the source list for `CC[C@H](C)[C@H](NC(=O)[C@H](Cc1c[nH]c2ccccc12)NC(=O)[C@H](CC(=O)O)NC(=O)[C@H](CC(=O)O)NC(=O)[C@H](CC(=O)O)NC(=O)[C@H](CCC(=O)O)NC(=O)[C@H](CCCNC(=N)N)NC(=O)[C@H](CCCNC(=N)N)NC(=O)[C@H](CCCNC(=N)N)NC(=O)[C@H](CCC(N)=O)NC(=O)[C@H](CCCNC(=N)N)NC(=O)[C@H](CCCNC(=N)N)NC(=O)[C@H](CCCCN)NC(=O)[C@H](CCCCN)NC(=O)[C@H](CCCNC(=N)N)NC(=O)CNC(=O)[C@H](Cc1ccc(O)cc1)NC(C)=O)C(=O)N[C@@H](CC(=O)O)C(=O)N[C@@H](Cc1c[nH]c2ccccc12)C(=O)NCC(=O)N1CCC[C@H]1C(=O)N[C@H](C(=O)N[C@@H](CO)C(=O)N[C@@H](CC(=O)O)C(=O)N[C@@H](CC(=O)O)C(=O)N[C@@H](CC(=O)O)C(N)=O)[C@@H](C)O` [Tat-17] (Ac-YGRKKRRQRRREDDDWIDWGPTSDDD-NH2)?
A: Ki [1, 3]: 50 ± 2 nM; Ki [1, 6]: 49.9 ± 2 nM

Q: For `CC[C@H](C)[C@H](NC(=O)[C@H](Cc1ccccc1)NC(=O)[C@H](CCC(=O)O)NC(=O)[C@@H](NC(=O)[C@@H](NC(C)=O)C(C)C)[C@@H](C)O)C(=O)N[C@@H](C)C(=O)N[C@@H](Cc1c[nH]c2ccccc12)C(=O)NCC(=O)N1CCC[C@H]1C(=O)N[C@H](C(=O)NCC(=O)N[C@@H](CC(=O)O)C(=O)N[C@@H](CCC(=O)O)C(=O)N[C@@H](CC(=O)O)C(N)=O)[C@@H](C)O` [VTEFIAWGPTGDED], which Ki ([1]; Table 11, deep mutational scanning validation variants of AJAP-1WT, read-out: Ki (nM) mean ± SEM) is on record?
A: Its Ki is 67 ± 1 nM.

Q: With `CC[C@H](C)[C@H](NC(=O)[C@H](C)NC(=O)[C@H](Cc1c[nH]c2ccccc12)NC(=O)[C@@H](NC(C)=O)C(C)C)C(=O)N[C@H](C(=O)N[C@@H](Cc1c[nH]c2ccccc12)C(=O)NCC(=O)N1CCC[C@H]1C(=O)N[C@H](C(=O)N[C@H](C(=O)N[C@@H](CO)C(=O)N[C@@H](CCCNC(=N)N)C(=O)N[C@@H](CCC(=O)O)C(=O)N[C@@H](CC(=O)O)C(N)=O)C(C)C)[C@@H](C)O)C(C)C` [VWAIVWGPTVSRED] (Ac-VWAIVWGPTVSRED-NH2) as the compound, how does the Ki ([1]; Table 12, deep mutational scanning validation variants of PIANPWT, read-out: Ki (nM) mean ± SEM) read?
A: The Ki was 412 ± 20 nM.

Q: For `CC[C@H](C)[C@H](NC(=O)[C@H](CC(=O)O)NC(=O)[C@H](CC(=O)O)NC(=O)[C@H](Cc1ccc(O)cc1)NC(=O)[C@H](CC(=O)O)NC(=O)[C@H](CC(=O)O)NC(=O)[C@H](CO)NC(=O)[C@H](CC(=O)O)NC(=O)[C@H](CCC(=O)O)NC(=O)[C@H](Cc1ccc2ccccc2c1)NC(=O)[C@H](CCCNC(=N)N)NC(=O)[C@H](CCCNC(=N)N)NC(=O)[C@H](CCCNC(=N)N)NC(=O)[C@H](CCCNC(=N)N)NC(C)=O)C(=O)N[C@@H](CC(=O)O)C(=O)N[C@@H](CC(=O)O)C(=O)N[C@@H](CC(=O)O)C(=O)N[C@@H](Cc1c[nH]c2ccccc12)C(N)=O` [reference compound] (Ac-RRRR[2Nal]EDSDDYDDIDDDW-NH2), which Ki [1, 6] is on record?
A: Its Ki is 143000 ± 2500 nM.

Q: For “EDDS(Aphe)VWWGGADTD (Ac-EDDS[Phe(4-NH2)]VWWGGADTD-NH2)”, which Ki [1, 5] is on record?
A: Its Ki is 184 ± 3 nM.

Q: Which Ki [1, 5] does the source give for “EDDS(Buphe)VWWGGADTD (Ac-EDDS[Phe(4-tBu)]VWWGGADTD-NH2)” here?
A: The Ki was 269 ± 3 nM.

Q: Which Ki [1, 5] does the source give for “EDDS(Fphe)VWWGGADTD (Ac-EDDS[Phe(4-F)]VWWGGADTD-NH2)” here?
A: Its Ki is 117 ± 2 nM.

Q: With “EDDSDVWW(Aphe)GADTD (Ac-EDDSDVWW[Phe(4-NH2)]GADTD-NH2; SMILES CC(=O)N[C@@H](CCC(=O)O)C(=O)N[C@@H](CC(=O)O)C(=O)N[C@@H](CC(=O)O)C(=O)N[C@@H](CO)C(=O)N[C@@H](CC(=O)O)C(=O)N[C@H](C(=O)N[C@@H](Cc1c[nH]c2ccccc12)C(=O)N[C@@H](Cc1c[nH]c2ccccc12)C(=O)N[C@@H](Cc1ccc(N)cc1)C(=O)NCC(=O)N[C@@H](C)C(=O)N[C@@H](CC(=O)O)C(=O)N[C@H](C(=O)N[C@@H](CC(=O)O)C(N)=O)[C@@H](C)O)C(C)C)” as the compound, how does the Ki [1, 5] read?
A: Its Ki is 102 ± 1 nM.

Q: Which Ki ([1]; Table 8, in μM, read-out: Ki (nM) mean ± SEM) does the source give for “ETEFlaWGPTGDED (Ac-ETEFI[dA]WGPTGDED-NH2)” here?
A: The Ki was > 6250 nM.
